Assay: During breakage test combing (weight of broken hairs after 20 combings)
Conditions: bleached strands, treated at 15%, combed 20 times, vs bleached untreated reference
Source text: All samples (hair strands) have been combed for 20 times and broken hairs have been weighted (with 0.0001 g accuracy, METTLER TOLEDO EXCELLENCE analytical scale).

NCCCOCCOCCOCCCN.O=C(O)C=CC(=O)O.O=C(O)C=CC(=O)O [bis-aminopropyl diglycol dimaleate]
reduction in broken hairs: 50.00%

Reference: US20220331217A1, “Hair restructuring association comprising a quaternary ammonium salt and a sulpho-derivative of vegetable fatty acids” (Greengredients S.r.l., priority 2021, published 2022)
